Source: ChEMBL document CHEMBL1201862, “PubChem BioAssay data set” (2004)
Calls of active or inactive are those of the source.

Legend:
[1] = molecular target: T1, E3 ubiquitin-protein ligase XIAP (Homo sapiens, UniProt P98170); experiment: Counter Screen using XIAP-Bir3 for Chemical Antagonists of Bir1/2 domains of IAP-family anti-apoptotic proteins. [Related pubchem assays (depositor defined):AID1018, AID1449, AID1514, AID1638, AID1749, AID1750, AID488957, AID488963]
[2] = molecular target: T1, E3 ubiquitin-protein ligase XIAP; experiment: XIAP antagonists, biochemical, IAP family, fluorescence polarization (AID 1018); assay type: functional
[3] = molecular target: T2, Voltage-gated N-type calcium channel alpha-1B subunit/Amyloid beta A4 precursor protein-binding family A member 1 (Homo sapiens, UniProt Q00975+Q02410); assay type: protein assay
[4] = molecular target: T2, Voltage-gated N-type calcium channel alpha-1B subunit/Amyloid beta A4 precursor protein-binding family A member 1; assay type: protein assay; remark: listed apart in the source
[5] = molecular target: Heat shock protein HSP 90-alpha (Homo sapiens, UniProt P07900); assay type: functional, organism-based
[6] = growth suppression of PTEN-null colon cells, dose response, cell-based, HCT116 PTEN knockout (AID 1047); assay type: functional;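 also: HCT116 colon tumor cells with PTEN knocked out; cells exposed to compound for 60 hours before readout; potency for loss of cell viability measured by luminescence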
[7] = cytotoxicity toward NIH3T3 fibroblasts, dose response, counter-screen, cell-based, ATP luminescence, mouse fibroblasts (AID 2010); assay type: functional;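 also: cells exposed to compound for about 90 hours before reading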
[8] = control 3'UTR Renilla luciferase suppression, dose response, counter-screen for Shn3 inhibitor project, cell-based, Clone20-Shn3RL, cherry-picked (AID 624133); assay type: functional
[9] = C. albicans growth with fluconazole, confirmation, fluorescence, retest (AID 2467); assay type: functional, cell-based
[10] = molecular target: Large T antigen (Simian virus 40, UniProt P03070); assay type: functional, Betapolyomavirus macacae;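 also: Confirmatory-stage PubChem screen for compounds that inhibit SV40 T antigen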
[11] = HepG2 cell cytotoxicity, dose response, cytotoxicity control for Shn3 inhibitor project, CellTiter-Glo, cherry-picked (AID 624134); assay type: functional, cell-based
[12] = Shn3 3'UTR reporter inhibitors, dose response, cell-based, Clone20 osteoblasts, firefly luciferase, cherry-picked (AID 624132); assay type: functional;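 also: firefly luciferase luminescence from reporter carrying the Shn3 3'UTR in osteoblasts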
[13] = growth suppression of beta-catenin-knockout colon cells, dose response, cell-based, HCT116, human colon tumor (AID 1045); assay type: functional;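 also: HCT116 colon tumor cells with beta catenin knocked out; cells exposed to compound for 60 hours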
[14] = inhibitors of intracellular T. cruzi replication, confirmation, NIH3T3 host cells, beta-gal luminescence (AID 2044); assay type: functional, cell-based;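 also: intracellular parasites grown in NIH/3T3 mouse fibroblasts as host cells; luminescent beta-galactosidase reporter signal from transgenic T. cruzi replicating inside host cells; inhibitors lower the luminescence signal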
[15] = molecular target: T3, Caspase-6 (Homo sapiens, UniProt P55212); experiment: human caspase-6 inhibitors, dose response, biochemical, VEID-R110 fluorescence, cherry-pick (AID 720632)
T3 sequence (P55212 whole entry): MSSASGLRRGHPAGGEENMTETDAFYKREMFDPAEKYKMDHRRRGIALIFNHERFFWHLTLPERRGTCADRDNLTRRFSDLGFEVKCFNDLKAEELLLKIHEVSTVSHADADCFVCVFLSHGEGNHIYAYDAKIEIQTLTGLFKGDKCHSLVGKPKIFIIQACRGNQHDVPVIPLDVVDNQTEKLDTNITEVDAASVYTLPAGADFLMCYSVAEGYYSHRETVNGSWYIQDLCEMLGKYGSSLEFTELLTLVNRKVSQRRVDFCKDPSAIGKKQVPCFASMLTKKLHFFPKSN

[16] = molecular target: DNA dC->dU-editing enzyme APOBEC-3A (Homo sapiens, UniProt P31941); experiment: Dose Response confirmation of small molecule APOBEC3A DNA Deaminase Inhibitors via a fluorescence-based single-stranded DNA deaminase assay. [Related pubchem assays (depositor defined):AID493011, AID493024]; assay type: functional
[17] = molecular target: DNA dC->dU-editing enzyme APOBEC-3G (Homo sapiens, UniProt Q9HC16); assay type: functional;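 also: Dose-response counterscreen measuring inhibition of APOBEC3G DNA deaminase activity, run while confirming APOBEC3A inhibitors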
[18] = molecular target: Genome polyprotein (dengue virus type 2, UniProt P29990); experiment: Dengue-2 NS5 methyltransferase inhibitors, primary screen, biochemical, confirmation dose response (AID 588689); assay type: functional
[19] = molecular target: DNA (cytosine-5)-methyltransferase 1 (Homo sapiens, UniProt P26358); experiment: DNMT1 methyltransferase inhibitors, confirmation, biochemical, fluorescent molecular beacon (AID 602386); assay type: functional
[20] = molecular target: T4, Carboxy-terminal domain RNA polymerase II polypeptide A small phosphatase 1 (Homo sapiens, UniProt Q9GZU7); experiment: inhibitors of CTDSP1, concentration-response testing, biochemical assay, absorbance-based, actives from ultra-high-throughput screening (AID 540297); assay type: functional
T4 sequence (Q9GZU7 whole entry): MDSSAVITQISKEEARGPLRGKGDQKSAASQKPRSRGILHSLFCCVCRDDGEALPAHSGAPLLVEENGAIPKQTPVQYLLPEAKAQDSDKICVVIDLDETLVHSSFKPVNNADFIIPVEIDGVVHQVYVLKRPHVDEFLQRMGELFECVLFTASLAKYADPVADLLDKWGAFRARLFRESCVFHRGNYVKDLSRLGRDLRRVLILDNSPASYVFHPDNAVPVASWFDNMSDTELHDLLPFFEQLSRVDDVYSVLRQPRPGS

[21] = molecular target: Induced myeloid leukemia cell differentiation protein Mcl-1 (Homo sapiens, UniProt Q07820); assay type: functional
Induced myeloid leukemia cell differentiation protein Mcl-1, sequence (Q07820 whole entry): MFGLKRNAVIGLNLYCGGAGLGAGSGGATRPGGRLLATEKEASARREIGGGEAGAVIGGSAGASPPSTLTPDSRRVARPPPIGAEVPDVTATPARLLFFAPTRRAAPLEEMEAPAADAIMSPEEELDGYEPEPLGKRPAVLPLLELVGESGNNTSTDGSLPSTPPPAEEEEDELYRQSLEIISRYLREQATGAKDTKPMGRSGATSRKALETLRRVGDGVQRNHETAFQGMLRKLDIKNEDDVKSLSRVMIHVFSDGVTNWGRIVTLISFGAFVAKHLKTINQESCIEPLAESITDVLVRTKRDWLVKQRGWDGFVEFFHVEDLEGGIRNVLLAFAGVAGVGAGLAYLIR

T2 sequence (Q00975 whole entry): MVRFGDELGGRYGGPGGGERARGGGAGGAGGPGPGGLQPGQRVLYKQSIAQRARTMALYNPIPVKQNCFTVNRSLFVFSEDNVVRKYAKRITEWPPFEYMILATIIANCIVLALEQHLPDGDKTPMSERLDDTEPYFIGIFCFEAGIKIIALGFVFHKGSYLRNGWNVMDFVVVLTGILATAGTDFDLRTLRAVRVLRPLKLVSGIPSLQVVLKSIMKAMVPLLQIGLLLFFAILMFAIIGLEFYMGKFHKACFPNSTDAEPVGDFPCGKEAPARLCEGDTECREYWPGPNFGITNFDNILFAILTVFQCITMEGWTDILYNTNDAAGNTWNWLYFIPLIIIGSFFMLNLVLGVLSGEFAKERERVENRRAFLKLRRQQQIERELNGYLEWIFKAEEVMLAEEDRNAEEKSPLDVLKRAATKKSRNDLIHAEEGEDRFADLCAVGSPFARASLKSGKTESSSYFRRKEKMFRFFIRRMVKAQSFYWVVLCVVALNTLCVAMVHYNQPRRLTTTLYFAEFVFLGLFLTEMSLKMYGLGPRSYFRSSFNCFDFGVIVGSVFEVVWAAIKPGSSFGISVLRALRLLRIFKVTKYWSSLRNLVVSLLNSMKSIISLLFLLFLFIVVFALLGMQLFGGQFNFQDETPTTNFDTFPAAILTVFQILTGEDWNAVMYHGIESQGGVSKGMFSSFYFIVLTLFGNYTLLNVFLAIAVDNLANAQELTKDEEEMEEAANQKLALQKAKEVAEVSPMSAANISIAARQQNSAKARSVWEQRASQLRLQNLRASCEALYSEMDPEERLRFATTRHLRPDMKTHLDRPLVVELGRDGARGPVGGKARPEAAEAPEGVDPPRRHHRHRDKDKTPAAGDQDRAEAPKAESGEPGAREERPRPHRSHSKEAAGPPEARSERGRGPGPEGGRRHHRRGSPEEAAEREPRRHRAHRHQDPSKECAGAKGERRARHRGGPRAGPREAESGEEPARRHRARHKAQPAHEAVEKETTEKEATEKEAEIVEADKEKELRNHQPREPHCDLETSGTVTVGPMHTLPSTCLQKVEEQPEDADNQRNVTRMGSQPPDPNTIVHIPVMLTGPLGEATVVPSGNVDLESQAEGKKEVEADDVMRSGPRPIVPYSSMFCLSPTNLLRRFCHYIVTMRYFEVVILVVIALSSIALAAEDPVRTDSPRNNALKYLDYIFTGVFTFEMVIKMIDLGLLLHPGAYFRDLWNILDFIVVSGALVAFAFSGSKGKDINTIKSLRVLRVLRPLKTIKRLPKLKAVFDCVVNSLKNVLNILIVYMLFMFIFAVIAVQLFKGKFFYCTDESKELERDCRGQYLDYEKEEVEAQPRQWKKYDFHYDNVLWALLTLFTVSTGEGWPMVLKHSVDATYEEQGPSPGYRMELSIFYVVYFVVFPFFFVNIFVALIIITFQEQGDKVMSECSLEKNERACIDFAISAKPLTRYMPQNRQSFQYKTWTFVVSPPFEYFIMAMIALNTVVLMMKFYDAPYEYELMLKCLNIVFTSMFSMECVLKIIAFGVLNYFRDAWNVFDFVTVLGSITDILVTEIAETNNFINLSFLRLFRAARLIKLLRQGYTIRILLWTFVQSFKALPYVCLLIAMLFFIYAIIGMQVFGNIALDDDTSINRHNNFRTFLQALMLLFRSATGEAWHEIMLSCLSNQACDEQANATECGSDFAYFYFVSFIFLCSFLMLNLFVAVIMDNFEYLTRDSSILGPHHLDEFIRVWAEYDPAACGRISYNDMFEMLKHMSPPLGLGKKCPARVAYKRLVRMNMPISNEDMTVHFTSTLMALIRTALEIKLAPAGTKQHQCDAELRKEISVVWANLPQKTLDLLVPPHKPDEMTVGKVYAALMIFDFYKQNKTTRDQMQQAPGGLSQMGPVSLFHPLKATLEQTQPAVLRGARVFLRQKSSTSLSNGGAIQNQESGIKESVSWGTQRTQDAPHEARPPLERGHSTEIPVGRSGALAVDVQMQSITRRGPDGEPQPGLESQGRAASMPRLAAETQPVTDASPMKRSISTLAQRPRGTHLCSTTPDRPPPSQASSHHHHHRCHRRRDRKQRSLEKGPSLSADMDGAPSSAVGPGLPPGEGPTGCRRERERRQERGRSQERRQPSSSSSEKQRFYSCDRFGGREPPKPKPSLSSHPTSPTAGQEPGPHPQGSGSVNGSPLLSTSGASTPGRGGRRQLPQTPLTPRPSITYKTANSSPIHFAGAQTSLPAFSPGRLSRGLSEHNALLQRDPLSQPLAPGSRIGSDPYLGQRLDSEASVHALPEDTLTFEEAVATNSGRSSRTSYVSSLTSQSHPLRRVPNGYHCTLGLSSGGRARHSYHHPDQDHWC
T2 sequence (Q02410 whole entry): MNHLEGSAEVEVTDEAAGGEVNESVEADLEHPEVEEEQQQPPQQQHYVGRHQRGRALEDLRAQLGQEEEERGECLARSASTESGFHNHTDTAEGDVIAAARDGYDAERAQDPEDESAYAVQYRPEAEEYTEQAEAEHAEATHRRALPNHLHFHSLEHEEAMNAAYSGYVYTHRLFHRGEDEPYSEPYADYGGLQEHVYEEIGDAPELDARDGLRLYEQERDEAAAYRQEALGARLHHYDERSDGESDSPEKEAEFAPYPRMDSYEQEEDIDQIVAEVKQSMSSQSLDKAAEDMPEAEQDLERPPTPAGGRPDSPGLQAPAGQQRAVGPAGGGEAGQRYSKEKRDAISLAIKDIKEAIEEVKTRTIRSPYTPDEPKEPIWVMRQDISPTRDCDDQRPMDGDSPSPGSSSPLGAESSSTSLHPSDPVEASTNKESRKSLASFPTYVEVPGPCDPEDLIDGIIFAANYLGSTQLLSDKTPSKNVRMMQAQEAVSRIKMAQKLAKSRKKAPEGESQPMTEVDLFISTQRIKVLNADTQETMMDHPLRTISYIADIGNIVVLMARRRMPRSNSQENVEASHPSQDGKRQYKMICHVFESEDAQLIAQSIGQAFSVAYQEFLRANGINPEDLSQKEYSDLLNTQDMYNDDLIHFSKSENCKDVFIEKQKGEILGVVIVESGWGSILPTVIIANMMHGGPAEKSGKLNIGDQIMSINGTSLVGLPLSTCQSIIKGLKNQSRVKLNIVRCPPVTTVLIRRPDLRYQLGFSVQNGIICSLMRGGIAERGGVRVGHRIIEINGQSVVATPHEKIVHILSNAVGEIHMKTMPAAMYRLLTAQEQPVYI
T1 sequence (P98170 whole entry): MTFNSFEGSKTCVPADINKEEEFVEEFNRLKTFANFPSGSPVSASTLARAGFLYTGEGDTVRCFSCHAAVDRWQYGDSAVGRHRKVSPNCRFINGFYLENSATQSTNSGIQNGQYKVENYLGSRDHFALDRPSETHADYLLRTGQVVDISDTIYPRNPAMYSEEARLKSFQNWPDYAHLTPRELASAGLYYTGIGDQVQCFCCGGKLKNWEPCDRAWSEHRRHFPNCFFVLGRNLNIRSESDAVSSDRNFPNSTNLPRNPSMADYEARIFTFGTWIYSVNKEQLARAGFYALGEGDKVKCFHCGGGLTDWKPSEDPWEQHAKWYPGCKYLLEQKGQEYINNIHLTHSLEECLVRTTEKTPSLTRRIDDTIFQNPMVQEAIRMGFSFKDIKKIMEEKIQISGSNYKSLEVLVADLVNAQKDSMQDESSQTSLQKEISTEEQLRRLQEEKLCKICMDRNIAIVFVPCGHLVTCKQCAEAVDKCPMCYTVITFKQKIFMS
Genome polyprotein, sequence (P29990 2492-3391 limits assumed): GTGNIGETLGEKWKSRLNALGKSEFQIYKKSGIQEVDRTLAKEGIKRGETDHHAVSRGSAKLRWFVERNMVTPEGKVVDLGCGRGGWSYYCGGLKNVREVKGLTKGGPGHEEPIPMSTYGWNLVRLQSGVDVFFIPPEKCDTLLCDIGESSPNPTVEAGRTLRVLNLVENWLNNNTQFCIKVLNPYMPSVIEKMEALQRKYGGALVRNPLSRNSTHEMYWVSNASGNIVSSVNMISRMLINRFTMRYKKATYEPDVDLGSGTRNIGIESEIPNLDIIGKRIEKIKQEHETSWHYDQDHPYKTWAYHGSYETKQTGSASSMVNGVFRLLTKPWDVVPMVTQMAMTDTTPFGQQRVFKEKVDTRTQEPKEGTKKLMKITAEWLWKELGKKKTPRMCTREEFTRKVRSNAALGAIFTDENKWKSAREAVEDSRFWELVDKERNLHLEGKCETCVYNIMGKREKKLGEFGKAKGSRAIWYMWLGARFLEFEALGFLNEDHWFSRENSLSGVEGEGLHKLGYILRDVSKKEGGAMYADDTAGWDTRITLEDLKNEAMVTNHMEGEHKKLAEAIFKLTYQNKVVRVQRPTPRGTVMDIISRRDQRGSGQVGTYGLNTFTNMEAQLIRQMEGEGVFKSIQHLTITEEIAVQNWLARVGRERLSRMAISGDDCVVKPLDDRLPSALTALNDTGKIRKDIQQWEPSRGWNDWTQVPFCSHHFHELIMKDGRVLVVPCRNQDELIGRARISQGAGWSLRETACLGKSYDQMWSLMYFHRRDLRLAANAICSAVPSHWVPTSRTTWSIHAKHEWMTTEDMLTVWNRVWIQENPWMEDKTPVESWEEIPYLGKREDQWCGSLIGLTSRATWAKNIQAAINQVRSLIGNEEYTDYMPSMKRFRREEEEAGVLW

For `c1cc(CNc2ccc(N3CCOCC3)cc2)ccn1`, the IC50 [1] was > 100 µM (inactive) and the IC50 [2] was > 100 µM (not active).

In the case of `Cc1ccc(-n2nnnc2C(Cl)(Cl)c2nnnn2-c2ccc(C)cc2)cc1`, the IC50 [3] is reported as 5.57 µM (active), the IC50 [4] is reported as 4.55 µM (active) and the AC50 [5] is reported as 1.27 µM (active). For the same molecule, the EC50 [6] was 9.09 µM (active), the EC50 [7] was 15 µM (active) and the AC50 [8] was 15.6 µM (active). For the same molecule, the EC50 [9] was > 38 µM (not active), the IC50 [10] was 11.1 µM (active) and the AC50 [11] was > 70 µM (inactive). For the same molecule, the AC50 [12] was 4.71 µM (active), the EC50 [13] was 9.11 µM (active) and the EC50 [14] was 1.11 µM (active).

For `COc1ccccc1NC(=O)COC(=O)c1cc2c(s1)CCC2`, the AC50 [15] was 5.53 µM (active), the IC50 [16] was 19.1 µM (active) and the IC50 [17] was 51 µM (active).

In the case of `COc1ccc(-c2csc(NC(=O)CSc3nc(C)nc4sc(C(=O)O)c(C)c34)n2)cc1`, the IC50 [3] is reported as > 50 µM (inactive), the IC50 [4] is reported as > 56.8 µM (not active) and the IC50 [18] is reported as 92.7 µM (active). The IC50 [19] was 14.6 µM (active), the IC50 [20] was 4.31 µM (active) and the IC50 [21] was 7.81 µM (active).
